Experimental data from patent US20260250337A1, “HYBRID ANTIMICROBIAL PEPTIDES” (UNIVERSIDADE FEDERAL DO ABC, priority 2023, published 2026).
No end group written: not given here.

How the values were obtained:
M. luteus A270 = assay: Liquid growth inhibition assay, MIC; format: cell-based, Micrococcus luteus; settings: 37° C., 18 h
Procedure: (§1) Initially, the antimicrobial activity was determined by liquid growth inhibition assays, as previously described by Pedron et al.^62. Briefly, Peptone Broth and Potato Dextrose Broth (Invitrogen) were used for antibacterial and antifungal assays, respectively. Two-fold serial dilutions of peptides (0.09-50 μmol L^−1) and microorganisms (Serratia marcescens ATCC 4112, Enterobacter cloacae β-12, Micrococcus luteus A270, Bacillus megaterium ATCC 10778, Bacillus subtilis ATCC 6633, Candida albicans MDM8, and Candida tropicalis IOC 4560) were incubated at 37° C. for 18 h (for bacteria) or 24 h (for fungi), and microbial growth was assessed by absorbance measurements at 595 nm. Experiments were performed in three biological repeats.

[1] = test system: S. epidermidis ATCC 12228; assay: Liquid growth inhibition assay, MIC; format: cell-based; settings: 37° C., 18 h
S. marcescens ATCC 4112 = assay: Liquid growth inhibition assay, MIC; format: cell-based, Serratia marcescens; settings: 37° C., 18 h
Procedure: as §1

E. cloacae β-12 = assay: Liquid growth inhibition assay, MIC; format: cell-based, Enterobacter cloacae; settings: 37° C., 18 h
Procedure: as §1

human erythrocytes = assay: Hemolytic activity assay; format: cell-based; settings: human erythrocytes, 1 h; for MHC: room temperature, concentration with approximately 0% of hemolytic activity
Procedure: Method. Assays against freshly collected human erythrocytes were performed following protocols described by Pedron et al. 62. Briefly, peptide aliquots at concentrations ranging from 0.1 to 100 μmol L−1 were incubated with a suspension of erythrocytes at room temperature for 1 h. The samples were then centrifuged, and the absorbance of the supernatant was measured at 405 nm. The MHC (maximal non-hemolytic concentration) was determined as the maximal concentration at which 100% of the erythrocytes were viable. The surfactant SDS and PBS buffer were used as positive88, 89 and negative controls, respectively. Sodium heparin was used as an anticoagulant when collecting human blood. Three biological repeats were performed.

[2] = test system: Plasmodium gallinaceum sporozoites; assay: Antiplasmodial activity, fluorescence microscopy; format: cell-based; settings: for P. gallinaceum (% sporozoites at 0.8 μmol L^−1): fluorescent (propidium iodide stained) sporozoites, 37° C., 1 h; for antiplasmodial activity: P. gallinaceum sporozoites, concentration range tested
Procedure: Method. The activity of the peptides against Plasmodium gallinaceum sporozoites was determined by fluorescence microscopy, as previously described by Silva et. al.^83. Briefly, 9,000 sporozoites were isolated from the glands of infected Aedes aegypti mosquitos and incubated with serially diluted peptides (ranging from 0.1 to 1.6 μmol L^−1) at 37° C. for 1 h. A PBS solution and the surfactant digitonin^84, 85 were used as negative and positive controls, respectively. Propidium iodide was used to stain dead cells. Assays were executed using fluorescence microscopy. Three biological repeats each with three different mosquito batches (n=9) were used.

A. baumannii ATCC19606 [3] = assay: Broth microdilution MIC, ESKAPE pathogens; format: cell-based; settings: LB, 37° C., 24 h
Procedure: (§2) Method. The minimal inhibitory concentration (MIC) against the ESKAPE pathogens was determined using the broth microdilution method^81, 82 in Luria-Bertani (LB) medium. The MIC value was defined as the lowest concentration of peptide at which no microbial growth was observed. A. baumannii ATCC19606, E. coli ATCC11775, E. coli AIC221, E. coli AIC222, K. pneumoniae ATCC13883, S. aureus ATCC12600 P. aeruginosa PAO1, and P. aeruginosa PA14 were incubated on agar plates, and after 24 h, three isolated colonies were inoculated to 5 mL of Luria-Bertani (LB) broth and maintained at 37° C. overnight with shaking. Peptides were then added to 96-well polystyrene microtiter plates at concentrations ranging from 0 to 128 μmol L^−1, and 5×10^5 CFU mL^−1 of each bacterium was inoculated in each well. The plates were incubated at 37° C. for 24 h. Bacterial growth was measured using a microplate reader at 610 nm. Three independent replicates were performed.

E. coli AIC221 = assay: Broth microdilution MIC, ESKAPE pathogens; format: cell-based; settings: LB, 37° C., 24 h
Procedure: as §2

K. pneumoniae ATCC13883 = assay: Broth microdilution MIC, ESKAPE pathogens; format: cell-based; settings: LB, 37° C., 24 h
Procedure: as §2

P. aeruginosa PA14 = assay: Broth microdilution MIC, ESKAPE pathogens; format: cell-based; settings: LB, 37° C., 24 h
Procedure: as §2

P. aeruginosa PAO1 = assay: Broth microdilution MIC, ESKAPE pathogens; format: cell-based; settings: LB, 37° C., 24 h
Procedure: as §2

S. aureus ATCC12600 = assay: Broth microdilution MIC, ESKAPE pathogens; format: cell-based; settings: LB, 37° C., 24 h
Procedure: as §2

[4] = Circular dichroism, helical fraction (Lifson-Roig); format: physicochemical; settings: peptide 50 μmol L^−1; for Helical fraction (fH) PBS: PBS 10 mmol L^−1, pH 7.4; for Helical fraction (fH) POPC: POPC 10 mmol L^−1; for Helical fraction (fH) POPC:DOPE: POPC:DOPE 3:1, mol:mol; for Helical fraction (fH) POPC:DOPE / Helical fraction (fH) POPC:POPG: 10 mmol L^−1; for Helical fraction (fH) POPC:POPG: POPC:POPG 3:1, mol:mol; for Helical fraction (fH) SDS: SDS 20 mmol L^−1 in water; for Helical fraction (fH) TFE/Water: TFE in water (3:2, v:v)
Procedure: Method. Circular dichroism (CD) assays were performed with a Spectropolarimeter Jasco Mod. J-815 (JascoCorp). CD spectra were obtained in Far-UV (195-260 nm), and analyzed in the following solutions: water, 2,2,2-trifluoroethanol (TFE) in water (3:2, v:v), phosphate buffer saline (PBS, 10 mmol L^−1, pH 7.4), sodium dodecyl sulfate (SDS 20 mmol L^−1) in water, palmitoyloleoylphosphatidylcholine (POPC; 10 mmol L^−1), palmitoyloleoylphosphatidylcholine:dioleylphosphatidylethanolamine (POPC:DOPE; 3:1, mol:mol, 10 mmol L^−1) and palmitoyloleoylphosphatidylcholine:palmitoyloleoylphosphatidylglycerol (POPC:POPG; 3:1, mol:mol, 10 mmol L^−1) at a peptide concentration of 50 μmol L^−1. These experiments were performed as described in detail by Pedron et al.^62.

A. baumannii ATCC19606 [5] = assay: NPN uptake assay, outer membrane permeabilization; format: cell-based; settings: peptides at their MIC
Procedure: Method. Membrane permeabilization was assessed for two of the naturally occurring peptides (VmCT1 and temporin A) and two of the hybrids [VmCT1-temporin A (VT) and temporin A-VmCT1 (TV)] at their MIC by using the N-phenyl-1-naphthylamine (NPN) uptake assay as previously described^104, 105. Briefly, A. baumannii ATCC19606 cells were grown to an optical density at 600 nm (OD600) of 0.4, centrifuged (10,000 rpm at 4° C. to 10 minutes), washed, and resuspended in buffer (5 mmol L^−1 HEPES, 5 mmol L^−1 glucose, pH 7.4). Four μL of NPN solution (0.5 mmol L^−1; working concentration of 10 μmol L^−1, after dilutions) was added to 100 μL of the bacterial solution in 96-well plates. The background fluorescence was then determined at λex=350 nm and […]. The peptides resuspended in water (100 μL at a concentration of 1.2 μmol L^−1) were added to each 96-well plate. The fluorescence was determined as a function of time until no further increase in fluorescence was observed (45 min).

Row | Substance | MIC M. luteus A270 (M. luteus A270) [µmol/L] | MIC S. epidermidis ATCC 12228 [1] [µmol/L] | MIC S. marcescens ATCC 4112 (S. marcescens ATCC 4112) [µmol/L] | MIC E. cloacae β-12 (E. cloacae β-12) [µmol/L] | Hemolytic activity, concentration of peptide needed to kill 10% of red blood cells (human erythrocytes) [µmol/L] | MHC (human erythrocytes) [µmol/L] | P. gallinaceum (% sporozoites at 0.8 μmol L^−1) [2] [%] | MIC A. baumannii ATCC19606 (A. baumannii ATCC19606 [3]) [µmol/L] | MIC E. coli AIC221 (E. coli AIC221) [µmol/L] | MIC K. pneumoniae ATCC13883 (K. pneumoniae ATCC13883) [µmol/L] | MIC P. aeruginosa PA14 (P. aeruginosa PA14) [µmol/L] | MIC P. aeruginosa PAO1 (P. aeruginosa PAO1) [µmol/L] | MIC S. aureus ATCC12600 (S. aureus ATCC12600) [µmol/L] | Helical fraction (fH) PBS [4] | Helical fraction (fH) POPC [4] | Helical fraction (fH) POPC:DOPE [4] | Helical fraction (fH) POPC:POPG [4] | Helical fraction (fH) SDS [4] | Helical fraction (fH) TFE/Water [4] | Helical fraction (fH) Water [4] | also measured
1 | FLGAIGNVLKSIL-NH2 [TV, Phe-Leu-Gly-Ala-Ile-Gly-Asn-Val-Leu-Lys-Ser-Ile-Leu] | 6.3 | >50 | 6.3 | >50 | 0.2 | 0.2 | 83 | 16 | 16 | 16 | 128 | 128 | 16 | 0.04 | 0.12 | 0.35 | 0.06 | 0.28 | 0.50 | 0.04 | antiplasmodial activity [2]: exhibited antiplasmodial activity; outer membrane permeabilization, NPN fluorescence (A. baumannii ATCC19606 [5]): increased fluorescence compared to the control
2 | FLGALWNVAKSVF-NH2 [VmCT1, Phe-Leu-Gly-Ala-Len-Trp-Asu-Val-Ala-Lys-Ser-Val-Phe, reference compound] | 0.8 | 3.1 | 0.4 | >50 | – | 6.3 | 93 | 8 | 32 | 64 | 128 | 128 | 8 | 0.03 | 0.42 | 0.55 | 0.25 | 0.17 | 0.30 | 0.05 | outer membrane permeabilization, NPN fluorescence (A. baumannii ATCC19606 [5]): increased fluorescence compared to the control
3 | FLPLIGRVLSGIL-NH2 [Temporin A, Phe-Leu-Pro-Leu-Ile-Gly-Arg-Val-Leu-Ser-Gly-Ile-Leu, reference compound] | 3.1 | >50 | 12.5 | >50 | 0.2 | 0.2 | 15 | 32 | 128 | 128 | 128 | 128 | 8 | 0.07 | 0.31 | 0.44 | 0.19 | 0.47 | 0.65 | 0.08 | antiplasmodial activity [2]: no activity; outer membrane permeabilization, NPN fluorescence (A. baumannii ATCC19606 [5]): increased fluorescence compared to the control
4 | FLPLLWRVASGVF-NH2 [VT, Phe-Leu-Pro-Leu-Leu-Trp-Arg-Val-Ala-Ser-Gly-Val-Phe] | 3.1 | >50 | 12.5 | >50 | 0.2 | 0.2 | 2 | 16 | 128 | 128 | 128 | 128 | 4 | 0.18 | 0.45 | 0.42 | 1.00 | 0.82 | 1.00 | 0.21 | antiplasmodial activity [2]: did not exhibit significant antiplasmodial activity; outer membrane permeabilization, NPN fluorescence (A. baumannii ATCC19606 [5]): did not lead to increased fluorescence compared to the control
5 | ILGAILNVLKSLG-NH2 [PV, Ile-Leu-Gly-Ala-Ile-Leu-Asn-Val-Leu-Lys-Ser-Leu-Gly] | 3.1 | >50 | 12.5 | >50 | 25 | 25 | 41 | 32 | 32 | 64 | 128 | – | 16 | 0.08 | 0.44 | 0.28 | 0.63 | 0.60 | 0.68 | 0.13 | –
